These results are taken from publication PMC8986850, “Development and exploration of novel substituted thiosemicarbazones as inhibitors of aldose reductase via in vitro analysis and computational study” (Scientific Reports, 2022).

In the experiment the target is T1, ALR1 (Bos taurus, UniProt Q3ZCJ2).
T1 construct: The calf’s kidneys were obtained after slaughtering and dissection; from tissue; host or cells: calf kidneys
The experiment is described as follows: ALR1 enzyme inhibition assay (enzyme extracted from calf kidneys). It is filed as biochemical, bovine. The following applies: bovine kidney ALR1, 100 µM inhibitor; read-out: I (%, 100 µM) (ALR1). On the procedure: Compounds 3a-o were tested against ALR2 to evaluate their inhibitory potential against aldose reductase whereas selectivity was determined via performing ALR1 inhibition assay. For the enzyme inhibition assay, ALR2 and ALR1 were extracted from bovine sources (ALR2 from eyes and ALR1 from kidneys). Moreover, inhibitions studies were also carried out on the expressed ALR2 (human AKR1B1) and inhibition data for ALR2- bovine source and expressed enzyme was compared and analyzed. The protocols for enzyme extraction and expression in the bacterial system are included in the section of “Supporting information”. […] For the purpose of comparison and validation of enzyme inhibition data, these compounds were tested against human AKR1B1 (hAKR1B1) expressed in E. coli BL21 (DE3). We found a similar pattern of enzyme inhibition for the synthesized compounds against extracted enzyme (ALR2) as well as expressed enzyme (hAKR1B1).
For the determination of enzyme activity of ALR1 and ALR2, 100 µL of reaction mixture was composed of 20 µL of buffer (100 mM sodium phosphate, pH 6.2), 30 µL of enzyme extract, 20 µL of substrate (10 mM), 20 µL of cofactor (0.1 mM of NADPH) and 10 µL of test compound (1 mM)[6],[21]. The reaction mixture without cofactor was incubated at 32°C for 10 min, then the enzymatic reaction was initiated with the addition of NADPH and monitored for 5 minutes. Similar protocols were followed for ALR1 and ALR2, however the substrate was different for each enzyme, with sodium-D-glucoronate and DL-glyceraldehyde used as the substrates for the ALR1 and ALR2 assays, respectively. […] In addition, similar protocols were adopted for human AKR1B1 that was expressed in E. coli BL21 (DE3), though the determined protein concentration was 12 µg/mL for the expressed enzyme. Detailed protocols for the preparation of ALR1, ALR2 and expressed human AKR1B1 can be found in the supporting information.
The newly synthesized N-substitute thiosemicarbazones (3a-o) were dissolved in 100% DMSO and diluted with deionized water, keeping the DMSO concentration equal to 0.1% in the assay.
The calf’s kidneys were obtained after slaughtering and dissection, dissolved in 3 volumes of sodium phosphate buffer (10mM) which is composed of 2.0 mM EDTA, 2.5mM β-mercaptoethanol, 0.25M solution of sucrose at pH 7.25. First, the homogenisation was carried out then centrifugation of the homogenate was performed at 12000 x g at 0-2^◦C for 30 minutes. The precipitates containing insoluble lipids were discarded and the collected supernatant layer was treated with 40% saturation of ammonium sulphate. This liquid mixture was subjected to centrifugation at 11000 x g at 0-2^◦C for 30 minutes. Now, precipitates were again discarded and supernatant was collected and treated with 50% ammonium sulphate and procedure was repeated in the same manner as in previous step. In the last step, the saturation of ammonium sulphate was increased up to 75% and supernatant was subjected to same parameter of centrifugation. At this final step, precipitates were obtained and supernatant layer was discarded. The obtained material of precipitates was composed of ALR1and redissolved in initial buffer that was used during homogenisation. Finally, material was dialyzed overnight with same buffer system. The dialyzed fractions containing ALR1 were stored at -80^◦C for further use[5].

T1 sequence (Q3ZCJ2 whole entry): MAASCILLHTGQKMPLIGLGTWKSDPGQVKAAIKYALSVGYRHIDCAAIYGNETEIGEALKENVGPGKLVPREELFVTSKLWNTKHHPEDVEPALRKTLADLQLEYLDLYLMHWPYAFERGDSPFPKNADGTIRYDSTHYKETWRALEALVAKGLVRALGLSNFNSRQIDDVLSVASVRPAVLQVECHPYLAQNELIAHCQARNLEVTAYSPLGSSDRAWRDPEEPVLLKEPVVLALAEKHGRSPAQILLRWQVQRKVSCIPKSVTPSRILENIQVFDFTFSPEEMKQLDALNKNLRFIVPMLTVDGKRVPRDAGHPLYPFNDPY

On to `CC(C)(C)c1cc(C=NNC(=S)Nc2ccccc2F)c(O)c(C(C)(C)C)c1` [Compound 3m, 2-(3,5-di-tert-butyl-2-hydroxybenzylidene)-N-(2-fluorophenyl)hydrazine carbothioamide], for which the inhibition at 100 µM is 4.27 to 26.2%.
